Experimental data reported in patent US20220409531A1, “PHARMACEUTICAL DELIVERY DEVICE AND METHOD OF MANUFACTURE” (University of Ulster, priority 2019, published 2022).
Counter-ions that a name gives are not always drawn.

Assay: in vitro pharmaceutical release in simulated gastric fluid and simulated intestinal fluid
Type: physicochemical
Conditions: for cumulative release: from the capsule, simulated gastric fluid (pH=1.7) / simulated intestinal fluid (pH=7.4), time not stated; for release kinetics model fit: release from the fibres, in vitro
Text: FIGS. 7A and 7B illustrate the use of a pharmaceutical delivery device in accordance with an embodiment of the present invention to release two pharmaceuticals at the same time, each with their own unique release profile, in which FIG. 7A is a pharmaceutical release profile of APAP and CM from the various capsule configurations in a simulated gastric fluid (pH=1.7) and a simulated intestinal fluid (pH=7.4), and FIG. 7B is a detailed pharmaceutical release profile for APAP and CM from the composite capsule in the first two hours in a simulated gastric fluid (pH=1.7); and
The capsule sample was immersed into a 100 ml beaker containing 50 mL PBS solution being stirred at 100 rpm. The whole separation process was finished in 169 s and the complete dissolution of PVP finished until 295 s. Also, regulation and controlled movement of each component pharmaceutical layer after separation was achieved by adding Fe3O4 nanoparticles and an external magnetic field. The separated capsule containing the printed outer PCL with embedded Fe3O4 nanoparticles and travel quickly from left to right under an applied external magnet field while the inner layer without any nanoparticles remained stationary (FIG. 5). This travel distance was covered within 3 s at a velocity of 6.7 mm/s. […] This allows for multifunctional uses of the capsule such as for targeted pharmaceutical release using an externally located magnet, and as a magnetic resonance tracer. […] The cumulative release of APAP was more than 90% while the cumulative release of CM was around 70%.

release rate comparison (first 2 hours in simulated gastric fluid (pH=1.7), composite capsule)	cumulative release	release kinetics model fit	Structure (SMILES)
faster than CM	more than 90%	mostly fit the Higuchi model	CC(=O)Nc1ccc(O)cc1 [APAP, paracetamol]
–	around 70%	mostly fit the Higuchi model	CN(C)CCC(c1ccc(Cl)cc1)c1ccccn1 (centres unmarked) [CM, chlorpheniramine maleate]
